pIC50: −log10 of the molar value. Several values for one entry are separate records, joined by “and”; a condition that tells them apart may be missing. Equal values may be shown once. Read-outs that look alike come from different tables or passages of the source.
Key:
MERS-CoV 3CLpro = MERS-CoV 3CLpro (Middle East respiratory syndrome-related coronavirus, UniProt K9N7C7); test: biochemical
SARS-CoV-2 3CLpro = SARS-CoV-2 3CLpro (Severe acute respiratory syndrome coronavirus 2, UniProt P0DTD1); test: biochemical
HCoV-229E 3CLpro = HCoV-229E 3CLpro (Human coronavirus 229E, UniProt P0C6X1); test: HCoV-229E 3CLpro inhibition assay (FRET); format: biochemical; details: protease 25 nM, FRET substrate 15 μM, pre-incubated 1 hr, read-out: 229E (activity in different coronaviruses)
Protocol: HCoV-229E 3CL^pro inhibition assay
The HCoV-229E 3CL^pro was expressed in E. coli BL21 (DE3) with the protein sequence of
For the HCoV-229E 3CL^pro assay, 2 μL of […] recombinant HCoV-229E 3CL protease were mixed with serial dilutions of each compound in 4 μL assay buffer containing 40 mM HEPES, pH=8.0, 1 mM CHAPS, 150 mM NaCl, 1 mM EDTA, 1 mM TCEP in a well of a 384-well plate and pre-incubated at rt for 1 hr. The custom-synthesized fluorogenic 3CL^pro peptide substrate used in the assay is as follows: FAM-[…]-TAMRA (peptide sequence according to SEQ ID NO: 3). This FRET-based substrate contains a FAM fluorophore attached at the N-terminus of a canonical 3CL^pro peptide substrate. The fluorophore is internally quenched by the TAMRA. The reaction was initiated by the addition of 10 μL of the substrate with a final concentration of 15 μM and each well was incubated at RT for 30 mins. The final concentration of the protease used at the assay was 25 nM and each compound was at a final concentration range of 100-0.0016 μM. The IC50 value which is the value causing 50% inhibition of the catalytic activity of the HCoV-229E 3CL^pro was calculated by four parameters equation analysis.

SARS-CoV 3CLpro = SARS-CoV 3CLpro (Severe acute respiratory syndrome coronavirus, UniProt P0C6X7); test: biochemical
[1] = IC50 (μM), SARS-CoV-2 3CLPro assay
[2] = read-out: IC50 (μM), SARS-CoV-2 3CLPro assay

With CC1(C[C@H](NC(=O)c2cc(C(F)F)on2)C(=O)NN(C[C@@H]2CCNC2=O)C(=O)[C@H](F)Cl)CC1 [Example 100, N-[(1S)-2-[2-[(2R)-2-chloro-2-fluoro-acetyl]-2-[[(3S)-2-axopyrrolidin-3-yl]methyl]hydrazino]-1-[(1-methylcyclopropyl)methyl]-2-axo-ethyl]-5-(difluoromethyl)isoxazole-3-carboxamide] the pIC50 (MERS-CoV 3CLpro) was 7.03, the IC50 (SARS-CoV-2 3CLpro; [1]) was 0.024 µM and the pIC50 (HCoV-229E 3CLpro) was 7.55. The pIC50 (SARS-CoV 3CLpro) was 7.51.

Cc1cc(C(=O)N[C@@H](CCC(C)C)C(=O)NN(C[C@@H]2CCNC2=O)C(=O)[C@H](F)Cl)no1 [Example 101, N-[(1S)-1-[[[(2R)-2-chloro-2-fluoro-acetyl]-[[(3S)-2-axopyrrolidin-3-yl]methyl]amino]carbamoyl]-4-methyl-pentyl]-5-methyl-isoxazole-3-carboxamide] gave a pIC50 (MERS-CoV 3CLpro) of 6.49, an IC50 (SARS-CoV-2 3CLpro; [2]) of 0.09 µM and a pIC50 (HCoV-229E 3CLpro) of 7.13. For the same compound, the pIC50 (SARS-CoV 3CLpro; read-out: SARS (activity in different coronaviruses)) was 6.80.

O=C(N[C@@H](CC12CC(C1)C2)C(=O)NN(C[C@@H]1CCNC1=O)C(=O)[C@H](F)Cl)c1cc(C(F)(F)F)on1 [Example 99, N-[(1S)-1-(1-bicyclo[1.1.1]pentanylmethyl)-2-[2-[(2R)-2-chloro-2-fluoro-acetyl]-2-[[(3S)-2-axopyrrolidin-3-yl]methyl]hydrazino]-2-axo-ethyl]-5-(trifluoromethyl)isoxazole-3-carboxamide] gave an IC50 (SARS-CoV-2 3CLpro; [2]) of 0.071 µM and a pIC50 (HCoV-229E 3CLpro) of 7.62.

CC(C)C[C@H](NC(=O)c1cc2ccccc2[nH]1)C(=O)NN(CCC(N)=O)C(=O)CCl [Example 28, N-[(1S)-1-[[(3-amino-3-oxo-propyl)-(2-chloroacetyl)amino]carbamoyl]-3-methyl-butyl]-1H-indole-2-carboxamide] gave a pIC50 (MERS-CoV 3CLpro) of 7.30, an IC50 (SARS-CoV-2 3CLpro; [2]) of 0.007 µM and a pIC50 (HCoV-229E 3CLpro) of 7.89. For the same compound, the pIC50 (SARS-CoV 3CLpro) was 7.80.

With CC(C)C[C@H](NC(=O)c1cc2ccccc2[nH]1)C(=O)NN(C[C@@H]1CCNC1=O)C(=O)CCl (single isomer, unassigned) [Example 51-A] the pIC50 (MERS-CoV 3CLpro) was 7.22, the IC50 (SARS-CoV-2 3CLpro; [1]) was 0.004 µM and 0.0027 µM and the pIC50 (HCoV-229E 3CLpro) was 7.77. The pIC50 (SARS-CoV 3CLpro) was 7.82.

For Cc1cc(C(=O)N[C@@H](CC23CC(C2)C3)C(=O)NN(C[C@@H]2CCNC2=O)C(=O)[C@H](F)Cl)no1 [Example 71, N-[(1S)-1-(1-bicyclo[1.1.1]pentanylmethyl)-2-[2-[(2R)-2-chloro-2-fluoro-acetyl]-2-[[(3S)-2-axopyrrolidin-3-yl]methyl]hydrazino]-2-axo-ethyl]-5-methyl-isoxazole-3-carboxamide], the IC50 (SARS-CoV-2 3CLpro; [1]) was 0.11 µM and the pIC50 (HCoV-229E 3CLpro) was 7.60.

Compound Cc1cc(C(=O)N[C@@H](CC2(C)CC2)C(=O)NN(C[C@@H]2CCNC2=O)C(=O)[C@H](F)Cl)no1 [Example 70, N-[(1S)-2-[2-[(2R)-2-chloro-2-fluoro-acetyl]-2-[[(3S)-2-axopyrrolidin-3-yl]methyl]hydrazino]-1-[(1-methylcyclopropyl)methyl]-2-axo-ethyl]-5-methyl-isoxazole-3-carboxamide] has a pIC50 (MERS-CoV 3CLpro) of 7.27, an IC50 (SARS-CoV-2 3CLpro; [1]) of 0.059 µM and a pIC50 (HCoV-229E 3CLpro) of 7.62. For the same compound, the pIC50 (SARS-CoV 3CLpro) was 7.03.

Compound “N-[(1S)-1-[[(3-amino-3-oxo-propyl)-[(2R)-2-chloro-2-fluoro-acetyl]amino]carbamoyl]-3-methyl-butyl]-1H-pyrrolo[2,3-c]pyridine-2-carboxamide and N-[(1S)-1-[[(3-amino-3-oxo-propyl)-[(2S)-2-chloro-2-fluoro-acetyl]amino]carbamoyl]-3-methyl-butyl]-1H-pyrrolo[2,3-c]pyridine-2-carboxamide [Example 88]” has an IC50 (SARS-CoV-2 3CLpro; [2]) of 0.013 µM.

For CC(C)C[C@H](NC(=O)OCc1ccccc1)C(=O)NN(CCC(N)=O)C(=O)C(Cl)c1ccccc1 (stereo partly drawn) [Example 3, Benzyl N-[(1S)-1-[[(3-amino-3-oxo-propyl)-(2-chloro-2-phenyl-acetyl)amino]carbamoyl]-3-methyl-butyl]carbamat], the IC50 (SARS-CoV-2 3CLpro; [2]) was 0.89 µM.

CC(C)C[C@H](NC(=O)c1cc2cc(F)ccc2[nH]1)C(=O)NN(CCC(N)=O)C(=O)[C@@H](F)Cl (racemic) [Example 57-A, 5-fluoro-N-[rac-(1S)-1-[[(3-amino-3-oxo-propyl)-[rac-(2S)-2-chloro-2-fluoro-acetyl]amino]carbamoyl]-3-methyl-butyl]-1H-indole-2-carboxamide] showed an IC50 (SARS-CoV-2 3CLpro; [1]) of 0.067 µM.

CC(C)C[C@H](NC(=O)/C=C/c1ccccc1)C(=O)NN(CCC(N)=O)C(=O)[C@H](F)Cl (single isomer, unassigned) [Example 86-A] gave an IC50 (SARS-CoV-2 3CLpro; [1]) of 0.75 µM.

Reference: patent US12060333B2 (Hoffmann-La Roche Inc., priority 2021, dated 2024)
